Active and inactive are the calls of the source. No cut-off for these calls is given here.
Experiments:
Mus musculus [1] = experiment: Growth inhibition of Swiss Albino mouse bearing EAT cells assessed as increase in life span at 100 mg/kg, ip; assay type: functional; set-up: scale not given: the % may be the effect or the level left; conditions: route intraperitoneal
Mus musculus [2] = experiment: Growth inhibition of Swiss Albino mouse bearing EAT cells assessed as reduction in cell numbers at 100 mg/kg, ip relative to control; assay type: functional, organism-based; set-up: dose 100 mg/kg
Mus musculus [3] = experiment: Growth inhibition of Swiss Albino mouse bearing EAT cells assessed as decrease in ascites volume at 100 mg/kg, ip relative to control; assay type: functional, organism-based; set-up: dose 100 mg/kg
Mus musculus [4] = experiment: Antiangiogenic effect in Swiss Albino mouse bearing EAT cells assessed as inhibition of blood vessel formation in at 100 mg/kg, ip; assay type: functional; conditions: route intraperitoneal
Mus musculus [5] = species on record: Mus musculus; experiment: Antiangiogenic effect in Swiss Albino mouse bearing EAT cells assessed as decrease in microvessel density by CAM assay; assay type: functional, organism-based
Mus musculus [6] = experiment: Growth inhibition of Swiss Albino mouse bearing EAT cells assessed as increase in median survival time at 100 mg/kg, ip; assay type: functional; conditions: route intraperitoneal
Mus musculus [7] = experiment: Growth inhibition of Swiss Albino mouse bearing EAT cells assessed as increase in life span at 100 mg/kg, ip administered on day 9 after tumor inoculation; assay type: functional; set-up: scale not given: the % may be the effect or the level left; conditions: route intraperitoneal
Mus musculus [8] = experiment: Growth inhibition of Swiss Albino mouse bearing EAT cells assessed as increase in life span at 100 mg/kg, ip administered on day 7 after tumor inoculation; assay type: functional; set-up: scale not given: the % may be the effect or the level left; conditions: route intraperitoneal
Mus musculus [9] = experiment: Growth inhibition of Swiss Albino mouse bearing EAT cells assessed as increase in life span at 100 mg/kg, ip administered on day 11 after tumor inoculation; assay type: functional; set-up: scale not given: the % may be the effect or the level left; conditions: route intraperitoneal

| SMILES | Activity (Mus musculus [1]) | Activity (Mus musculus [2]) | Activity (Mus musculus [3]) | Activity (Mus musculus [4]) | Activity (Mus musculus [5]) | Survival (Mus musculus [6]) | Activity (Mus musculus [7]) | Activity (Mus musculus [8]) | Activity (Mus musculus [9]) |
| --- | --- | --- | --- | --- | --- | --- | --- | --- | --- |
| COc1cc(/C=C/C(=O)/C=C/c2cc(OC)c(OC3CC3)c(OC)c2)cc(OC)c1OC1CC1 | 77.7% | Active | Active | 2.8 | Active | 32 days |  |  |  |
| O=C(/C=C/c1ccc(OC2CC2)cc1)/C=C/c1ccc(OC2CC2)cc1 | 34.4% | Active | Active | 4.2 | Active | 24.2 days | 34.4% |  |  |
| COc1cc(/C=C/C(=O)/C=C/c2ccc(OC3CC3)c(OC)c2)ccc1OC1CC1 | 48.8% | Active | Active | 3 | Active | 26.8 days |  | 48.8% |  |
| Cc1cc(/C=C/C(=O)/C=C/c2ccc(OC3CC3)c(C)c2)ccc1OC1CC1 | 28.8% | Active | Active | 4.4 | Active | 23.2 days |  |  | 28.8% |
